Experimental data reported in ChEMBL document CHEMBL1201862, “PubChem BioAssay data set” (2004).
Blank lines part the entries; values can stand above or below the compound they belong to. The source made the active and inactive calls.

How the values were obtained:
[1] = biological target: T1, Oxysterols receptor LXR-beta (Homo sapiens, UniProt P55055); format: functional, cell-based;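 also: Cell-based luminescence dose-response assay of agonist activity at LXR, run as a confirmatory counterscreen to a daf-12 agonist screen; HEK293 cells with Gal4-LXR fusion and GAL4-driven luciferase reporter; agonist potency from rising luciferase signal of a Gal4-LXR reporter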
T1 sequence (P55055 whole entry): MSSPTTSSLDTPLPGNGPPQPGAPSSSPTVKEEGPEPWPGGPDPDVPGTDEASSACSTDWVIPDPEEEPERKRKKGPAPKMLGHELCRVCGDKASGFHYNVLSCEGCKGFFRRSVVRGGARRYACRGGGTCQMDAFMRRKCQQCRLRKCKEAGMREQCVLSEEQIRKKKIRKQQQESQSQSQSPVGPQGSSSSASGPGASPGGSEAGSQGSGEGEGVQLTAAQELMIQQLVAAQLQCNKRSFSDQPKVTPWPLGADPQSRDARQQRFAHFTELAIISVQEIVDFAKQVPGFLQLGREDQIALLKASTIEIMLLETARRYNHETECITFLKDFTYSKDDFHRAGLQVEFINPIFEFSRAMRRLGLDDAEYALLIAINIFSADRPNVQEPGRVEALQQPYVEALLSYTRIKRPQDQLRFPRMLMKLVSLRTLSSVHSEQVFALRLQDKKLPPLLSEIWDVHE

Aminopeptidase N = biological target: T2, Aminopeptidase N (Plasmodium falciparum FcB1/Columbia, UniProt O96935); assay: P. falciparum M1AAP inhibitors, biochemical, fluorogenic H-Leu-NHMec substrate, 1536-well (AID 1445); parameters: species or system Plasmodium falciparum 3D7, 3D7
T2 sequence (O96935 whole entry): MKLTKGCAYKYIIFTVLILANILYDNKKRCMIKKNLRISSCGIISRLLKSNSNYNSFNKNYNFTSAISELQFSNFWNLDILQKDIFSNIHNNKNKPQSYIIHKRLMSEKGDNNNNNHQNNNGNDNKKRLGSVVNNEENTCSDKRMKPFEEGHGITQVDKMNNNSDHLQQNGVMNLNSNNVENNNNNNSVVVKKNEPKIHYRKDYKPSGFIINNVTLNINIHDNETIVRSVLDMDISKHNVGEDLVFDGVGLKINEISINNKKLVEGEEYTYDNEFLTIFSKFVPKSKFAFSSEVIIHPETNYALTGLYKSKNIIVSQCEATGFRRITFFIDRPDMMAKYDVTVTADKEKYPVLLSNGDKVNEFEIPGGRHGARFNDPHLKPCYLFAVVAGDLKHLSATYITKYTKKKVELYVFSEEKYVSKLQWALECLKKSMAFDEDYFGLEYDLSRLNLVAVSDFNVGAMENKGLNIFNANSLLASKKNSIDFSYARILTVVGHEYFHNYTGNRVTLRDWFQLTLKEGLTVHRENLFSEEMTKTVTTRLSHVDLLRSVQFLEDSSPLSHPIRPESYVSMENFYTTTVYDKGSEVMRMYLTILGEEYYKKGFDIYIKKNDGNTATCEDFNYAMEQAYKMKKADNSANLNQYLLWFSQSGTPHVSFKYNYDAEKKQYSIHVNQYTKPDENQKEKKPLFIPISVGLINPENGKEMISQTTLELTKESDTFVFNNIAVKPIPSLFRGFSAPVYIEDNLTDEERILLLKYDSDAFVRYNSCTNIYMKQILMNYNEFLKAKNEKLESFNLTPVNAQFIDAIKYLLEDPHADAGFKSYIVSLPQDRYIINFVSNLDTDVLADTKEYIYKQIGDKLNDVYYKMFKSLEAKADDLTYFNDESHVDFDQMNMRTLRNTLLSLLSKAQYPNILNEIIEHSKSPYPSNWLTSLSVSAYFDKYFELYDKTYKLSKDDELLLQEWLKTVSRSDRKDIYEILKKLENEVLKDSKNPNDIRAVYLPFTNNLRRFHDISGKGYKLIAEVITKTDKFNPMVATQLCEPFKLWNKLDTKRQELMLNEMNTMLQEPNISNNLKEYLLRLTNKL

[2] = biological target: T3, Short transient receptor potential channel 4 (Mus musculus, UniProt Q9QUQ5); assay: mouse TRPC4 channel inhibitors, dose response, cell-based, HEK293 TRPC4/mu-opioid, Fluo-4 calcium (AID 434942); format: functional;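 also: potency of inhibitors blocking the TRPC4 calcium response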
T3 sequence (Q9QUQ5 whole entry): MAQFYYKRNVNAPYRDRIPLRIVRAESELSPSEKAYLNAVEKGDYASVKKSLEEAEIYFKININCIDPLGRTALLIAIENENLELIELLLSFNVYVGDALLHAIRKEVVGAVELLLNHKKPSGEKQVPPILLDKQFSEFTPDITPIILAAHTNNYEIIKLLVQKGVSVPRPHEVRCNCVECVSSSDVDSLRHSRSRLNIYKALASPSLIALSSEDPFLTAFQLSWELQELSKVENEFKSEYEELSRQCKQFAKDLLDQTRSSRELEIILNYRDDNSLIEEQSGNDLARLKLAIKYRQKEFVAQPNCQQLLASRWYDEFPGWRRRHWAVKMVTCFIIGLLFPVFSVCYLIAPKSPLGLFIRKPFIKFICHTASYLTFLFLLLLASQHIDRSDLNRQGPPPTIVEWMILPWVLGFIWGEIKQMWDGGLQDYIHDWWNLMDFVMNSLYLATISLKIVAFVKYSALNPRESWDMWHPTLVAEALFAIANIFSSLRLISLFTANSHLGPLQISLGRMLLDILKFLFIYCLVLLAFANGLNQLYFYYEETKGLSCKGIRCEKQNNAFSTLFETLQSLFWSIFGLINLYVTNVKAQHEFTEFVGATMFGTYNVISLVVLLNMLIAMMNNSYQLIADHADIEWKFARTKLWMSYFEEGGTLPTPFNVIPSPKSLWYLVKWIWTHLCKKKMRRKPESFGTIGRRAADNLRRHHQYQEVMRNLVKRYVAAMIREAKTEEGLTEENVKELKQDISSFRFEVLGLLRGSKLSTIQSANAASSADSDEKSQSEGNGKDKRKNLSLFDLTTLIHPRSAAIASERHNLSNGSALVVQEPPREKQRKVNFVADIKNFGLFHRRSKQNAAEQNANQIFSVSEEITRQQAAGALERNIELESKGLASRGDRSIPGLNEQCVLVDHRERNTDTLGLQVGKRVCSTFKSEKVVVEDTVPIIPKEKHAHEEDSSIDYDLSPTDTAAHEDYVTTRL

Vero = Vero cell cytotoxicity, cytotoxicity control for flavivirus capping enzyme inhibitors (AID 588742); format: functional; settings: Chlorocebus sabaeus
Genome polyprotein = Genome polyprotein (dengue virus type 2, UniProt P29990); assay: Dengue-2 NS5 methyltransferase inhibitors, primary screen, biochemical, confirmation dose response (AID 588689); format: functional
Genome polyprotein, sequence (P29990 2492-3391 limits assumed): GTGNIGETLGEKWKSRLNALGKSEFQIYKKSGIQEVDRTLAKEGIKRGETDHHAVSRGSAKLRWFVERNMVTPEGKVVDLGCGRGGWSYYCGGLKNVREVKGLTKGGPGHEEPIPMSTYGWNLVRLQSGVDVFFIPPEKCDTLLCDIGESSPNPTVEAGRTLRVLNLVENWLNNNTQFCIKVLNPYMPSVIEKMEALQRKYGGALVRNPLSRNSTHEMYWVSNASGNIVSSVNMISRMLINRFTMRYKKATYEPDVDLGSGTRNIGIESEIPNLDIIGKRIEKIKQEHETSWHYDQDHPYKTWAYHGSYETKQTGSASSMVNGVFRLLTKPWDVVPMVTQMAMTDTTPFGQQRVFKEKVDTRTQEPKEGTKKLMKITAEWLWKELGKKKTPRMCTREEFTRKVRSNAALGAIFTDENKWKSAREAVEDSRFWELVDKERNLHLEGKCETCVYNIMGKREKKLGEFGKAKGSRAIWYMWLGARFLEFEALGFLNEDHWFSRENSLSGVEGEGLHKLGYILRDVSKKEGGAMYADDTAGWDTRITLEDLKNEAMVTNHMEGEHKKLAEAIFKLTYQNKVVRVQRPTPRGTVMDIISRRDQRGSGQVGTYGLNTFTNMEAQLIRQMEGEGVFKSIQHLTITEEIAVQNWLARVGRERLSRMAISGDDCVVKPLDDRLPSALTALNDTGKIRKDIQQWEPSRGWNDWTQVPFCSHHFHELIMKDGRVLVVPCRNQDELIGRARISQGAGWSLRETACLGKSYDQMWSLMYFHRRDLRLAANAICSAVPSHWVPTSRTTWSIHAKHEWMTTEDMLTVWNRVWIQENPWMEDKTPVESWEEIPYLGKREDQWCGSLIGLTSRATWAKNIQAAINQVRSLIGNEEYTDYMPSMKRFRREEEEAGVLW

[3] = biological target: T4, Corticotropin-releasing factor receptor 2/Corticotropin-releasing factor-binding protein (Homo sapiens, UniProt P24387+Q13324); assay: Dose Response confirmation of uHTS hits for small molecule antagonists of the CRF-binding protein and CRF-R2 receptor complex.; format: functional; settings: read-out: IC50_Mean
T4 sequence (Q13324 whole entry): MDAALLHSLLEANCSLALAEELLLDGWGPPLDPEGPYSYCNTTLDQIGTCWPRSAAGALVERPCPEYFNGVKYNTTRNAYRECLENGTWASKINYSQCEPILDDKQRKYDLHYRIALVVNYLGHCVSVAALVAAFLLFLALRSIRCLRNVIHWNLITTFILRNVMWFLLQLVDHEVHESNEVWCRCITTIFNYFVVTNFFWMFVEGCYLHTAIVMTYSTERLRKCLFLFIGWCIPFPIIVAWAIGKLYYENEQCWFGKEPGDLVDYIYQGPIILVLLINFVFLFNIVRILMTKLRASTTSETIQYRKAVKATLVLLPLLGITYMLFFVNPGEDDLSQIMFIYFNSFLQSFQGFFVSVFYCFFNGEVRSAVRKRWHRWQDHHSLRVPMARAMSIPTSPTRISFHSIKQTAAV
T4 sequence (P24387 whole entry): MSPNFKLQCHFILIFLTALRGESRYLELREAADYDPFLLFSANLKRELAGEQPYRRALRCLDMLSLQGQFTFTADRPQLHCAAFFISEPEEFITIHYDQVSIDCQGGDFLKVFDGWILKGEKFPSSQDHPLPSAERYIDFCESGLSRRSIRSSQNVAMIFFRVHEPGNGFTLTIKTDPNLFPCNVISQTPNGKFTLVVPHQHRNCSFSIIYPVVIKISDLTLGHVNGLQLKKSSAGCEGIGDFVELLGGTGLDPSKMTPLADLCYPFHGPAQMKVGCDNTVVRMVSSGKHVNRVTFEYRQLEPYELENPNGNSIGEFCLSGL

[4] = biological target: T4, Corticotropin-releasing factor receptor 2/Corticotropin-releasing factor-binding protein; assay: activators of CRF receptor 2 with binding protein – uHTS hits, confirmation (AID 602473); format: functional; settings: read-out: EC50_Mean
[5] = CRF-BP/CRF-R2 complex antagonists, dose response, cell-based, uHTS hits, 384-well (AID 651639); format: functional, Homo sapiens; settings: read-out: IC50_Mean
[6] = biological target: Potassium channel subfamily K member 9 (Homo sapiens, UniProt Q9NPC2); assay: TASK3 (KCNK9) channel inhibitors, thallium flux, SAR follow-up, selectivity assay for TASK1 inhibitor project, cell-based, FluxOR thallium flux, concentration-response (AID 652211); format: functional;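 also: potency is for inhibitors of the channel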
Potassium channel subfamily K member 9, sequence (Q9NPC2 whole entry): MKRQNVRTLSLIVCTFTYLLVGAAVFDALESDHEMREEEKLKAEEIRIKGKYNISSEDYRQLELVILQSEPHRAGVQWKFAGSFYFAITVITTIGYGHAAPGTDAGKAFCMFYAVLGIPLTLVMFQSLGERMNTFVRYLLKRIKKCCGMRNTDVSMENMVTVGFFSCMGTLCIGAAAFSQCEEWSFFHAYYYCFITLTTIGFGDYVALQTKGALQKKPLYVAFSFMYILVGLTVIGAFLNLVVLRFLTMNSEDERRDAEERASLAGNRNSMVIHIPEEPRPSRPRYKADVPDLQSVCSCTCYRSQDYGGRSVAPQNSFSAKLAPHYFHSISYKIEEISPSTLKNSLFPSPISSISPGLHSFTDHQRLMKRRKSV

[7] = A549 cell cytotoxicity, dose response, cytotoxicity control, plate reader, cherry-pick, antagonist series (AID 743412); format: functional, cell-based
[8] = HepG2 cell cytotoxicity, dose response, cytotoxicity control, plate reader, cherry-pick, antagonist series (AID 743416); format: functional, cell-based
[9] = LGR2 antagonists, dose response, cell-based, HEK293, CRE-luciferase reporter, cherry pick, set 2 (AID 743343); format: functional;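 also: transfected cells were stimulated with diluted bursicon conditioned medium after compound addition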
[10] = MC4R antagonists, dose response, counter-screen for LGR2 antagonist project, cell-based, plate reader, cherry pick (AID 743444); format: functional;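 also: transfected HEK 293 cells stimulated with alpha-MSH peptide; potency of inhibitors of the alpha-MSH evoked signal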
[11] = HEK293 cell cytotoxicity, dose response, cytotoxicity control, plate reader, cherry-picked samples (AID 743446); format: functional, cell-based
Protein Tat = biological target: T5, Protein Tat (Human immunodeficiency virus type 1 group M subtype B (isolate HXB2)(HIV-1), UniProt P04608); format: functional;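 also: tat binding to TAR RNA read out by fluorescence polarization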
T5 sequence (P04608 whole entry): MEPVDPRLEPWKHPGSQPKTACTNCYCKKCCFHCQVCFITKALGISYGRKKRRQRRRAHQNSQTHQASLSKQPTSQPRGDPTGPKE

[12] = biological target: T6, ATP-dependent translocase ABCB1 (Homo sapiens, UniProt P08183); assay: ABCG2 efflux pump inhibitor potency, dose response, Ig-MXP3 cells, JC-1, flow cytometry, set 2 (AID 504566); format: functional; settings: read-out: EC50_MICROM_;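 also: flow cytometry median green fluorescence of retained JC-1 dye; potency of efflux pump inhibition measured as rising substrate retention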
T6 sequence (P08183 whole entry): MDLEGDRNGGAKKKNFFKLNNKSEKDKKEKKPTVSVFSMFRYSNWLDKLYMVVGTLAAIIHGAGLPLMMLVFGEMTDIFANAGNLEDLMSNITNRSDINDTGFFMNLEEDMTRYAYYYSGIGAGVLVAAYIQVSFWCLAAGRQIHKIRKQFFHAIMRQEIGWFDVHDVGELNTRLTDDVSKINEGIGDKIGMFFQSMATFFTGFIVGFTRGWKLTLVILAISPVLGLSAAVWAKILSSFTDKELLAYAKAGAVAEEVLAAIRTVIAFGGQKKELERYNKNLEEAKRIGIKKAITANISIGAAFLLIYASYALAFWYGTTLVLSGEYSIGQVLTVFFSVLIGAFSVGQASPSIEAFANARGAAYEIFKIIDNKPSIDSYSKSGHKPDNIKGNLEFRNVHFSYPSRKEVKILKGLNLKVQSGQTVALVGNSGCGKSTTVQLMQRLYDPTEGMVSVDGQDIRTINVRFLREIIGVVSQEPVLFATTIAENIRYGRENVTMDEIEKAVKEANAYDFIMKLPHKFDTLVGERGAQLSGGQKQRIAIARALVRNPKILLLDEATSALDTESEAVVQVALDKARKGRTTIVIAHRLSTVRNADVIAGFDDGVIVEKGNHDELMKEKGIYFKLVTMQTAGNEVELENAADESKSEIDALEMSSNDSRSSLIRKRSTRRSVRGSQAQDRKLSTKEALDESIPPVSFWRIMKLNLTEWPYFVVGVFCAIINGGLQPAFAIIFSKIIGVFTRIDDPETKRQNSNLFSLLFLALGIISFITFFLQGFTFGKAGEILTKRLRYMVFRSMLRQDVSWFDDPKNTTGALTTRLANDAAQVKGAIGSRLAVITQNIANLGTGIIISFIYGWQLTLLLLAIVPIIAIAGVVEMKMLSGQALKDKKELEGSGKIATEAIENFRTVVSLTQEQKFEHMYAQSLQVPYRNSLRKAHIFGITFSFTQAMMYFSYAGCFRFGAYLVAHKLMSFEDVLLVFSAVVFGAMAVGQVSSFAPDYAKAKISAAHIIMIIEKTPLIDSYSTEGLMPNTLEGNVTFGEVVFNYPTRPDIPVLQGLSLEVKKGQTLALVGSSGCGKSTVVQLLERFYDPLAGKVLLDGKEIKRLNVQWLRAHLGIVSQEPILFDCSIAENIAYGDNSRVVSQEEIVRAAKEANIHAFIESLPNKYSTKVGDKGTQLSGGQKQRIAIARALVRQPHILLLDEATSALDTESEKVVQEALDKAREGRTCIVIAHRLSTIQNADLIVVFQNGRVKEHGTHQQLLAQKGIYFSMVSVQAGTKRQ

[13] = biological target: T6, ATP-dependent translocase ABCB1; assay: ABCB1 efflux inhibitor potency, dose response, Jurkat-DNR cells, JC-1, flow cytometry, set 2 (AID 504569); format: functional; settings: read-out: EC50_MICROM_;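 also: potency of pump inhibitors that raise cellular JC-1 green fluorescence up to the nicardipine level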

Structure (SMILES): Brc1ccccc1C1NC(c2ccccc2)=NO1 (stereo not given)
EC50 [1]: > 67.5 µM (inactive)
EC50 (cells): > 67.5 µM (inactive)

Structure (SMILES): COc1ccccc1C(=O)Nc1cccc(NC(=O)c2ccccc2C)c1
IC50 [6]: 3.49 µM (active)

Structure (SMILES): Cc1cc2ncc(-c3cccs3)nc2cc1C
AC50 [7]: 25.7 µM (active)
AC50 [8]: > 52 µM (inactive)
AC50 [9]: 4.64 µM (active)
AC50 [10]: 4.22 µM (active)
EC50 [1]: > 67.6 µM (inactive)
AC50 [11]: 49.4 µM (active)
EC50 (cells): > 67.6 µM (inactive)

Continued, in another order:

IC50 (Aminopeptidase N): 33.1 µM (active)
EC50 [2]: 6.68 µM (active)
IC50 (Genome polyprotein): 37.4 µM (active)
IC50 [3]: 12.6 µM (active)
EC50 [4]: > 53 µM (inactive)
IC50 [5]: 10.4 µM (active)
Structure (SMILES): COc1cc(/C=C2\SC(=S)N(NS(=O)(=O)c3ccc(C)cc3)C2=O)cc(OC)c1OC
CC50 (Vero): > 40 µM (active)

IC50 (Protein Tat): > 100 µM (active)
Structure (SMILES): O=c1cc(O)n(-c2ccc(F)cc2)c(=S)[nH]1

EC50 [12]: 3.41 µM (active)
EC50 [13]: 7.87 µM (active)
Structure (SMILES): Cc1nc2cc(-c3cccc(Cl)c3)nn2c(N2CCN(C(=O)c3ccco3)CC2)c1C
